Assay results published in patent US10870652B2, “Compounds and methods for modulating bruton's tyrosine kinase” (CORVUS PHARMACEUTICALS, INC., priority 2016, dated 2020).
pIC50: −log10 of the molar value.

Legend:
Assay type in all cases: biochemical
ITK = target: T1, ITK (Homo sapiens, UniProt Q08881); test: ITK IC50 kinase inhibition assay
T1 sequence (Q08881 1-620): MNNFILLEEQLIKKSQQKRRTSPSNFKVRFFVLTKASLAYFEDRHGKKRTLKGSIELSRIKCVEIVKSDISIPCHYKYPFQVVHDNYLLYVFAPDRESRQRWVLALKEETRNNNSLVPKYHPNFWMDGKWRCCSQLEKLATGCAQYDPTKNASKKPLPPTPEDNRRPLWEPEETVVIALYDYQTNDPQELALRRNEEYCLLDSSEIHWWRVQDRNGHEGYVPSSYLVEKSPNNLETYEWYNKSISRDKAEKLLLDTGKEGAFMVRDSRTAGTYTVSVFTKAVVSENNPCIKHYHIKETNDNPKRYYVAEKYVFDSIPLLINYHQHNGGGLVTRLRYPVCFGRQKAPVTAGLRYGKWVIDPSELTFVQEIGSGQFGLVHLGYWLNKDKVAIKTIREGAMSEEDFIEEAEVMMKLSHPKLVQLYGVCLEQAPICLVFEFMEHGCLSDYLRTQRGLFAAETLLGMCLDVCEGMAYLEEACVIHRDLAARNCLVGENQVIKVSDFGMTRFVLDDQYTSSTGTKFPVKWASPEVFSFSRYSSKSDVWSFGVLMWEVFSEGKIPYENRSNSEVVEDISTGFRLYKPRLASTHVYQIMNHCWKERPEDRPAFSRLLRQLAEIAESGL

RLK = target: T2, RLK (Homo sapiens, UniProt P42681); test: RLK IC50 kinase inhibition assay
T2 sequence (P42681 1-527): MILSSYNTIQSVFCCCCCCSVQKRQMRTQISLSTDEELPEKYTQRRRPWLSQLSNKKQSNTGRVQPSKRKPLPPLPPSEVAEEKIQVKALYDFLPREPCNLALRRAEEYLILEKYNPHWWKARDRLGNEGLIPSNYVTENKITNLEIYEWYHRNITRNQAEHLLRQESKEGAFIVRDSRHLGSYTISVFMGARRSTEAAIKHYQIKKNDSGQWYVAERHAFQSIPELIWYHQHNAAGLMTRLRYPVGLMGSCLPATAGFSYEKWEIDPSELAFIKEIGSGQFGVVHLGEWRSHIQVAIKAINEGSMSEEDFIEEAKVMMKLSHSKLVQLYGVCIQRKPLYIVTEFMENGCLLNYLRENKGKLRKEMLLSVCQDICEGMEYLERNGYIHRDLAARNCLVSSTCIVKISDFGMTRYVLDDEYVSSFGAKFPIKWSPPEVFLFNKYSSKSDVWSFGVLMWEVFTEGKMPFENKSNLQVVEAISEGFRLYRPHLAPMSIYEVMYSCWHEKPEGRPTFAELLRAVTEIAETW

JAK3 = target: T3, JAK3 (Homo sapiens, UniProt P52333); test: JAK3 IC50 kinase inhibition assay
T3 sequence (P52333 1-1124): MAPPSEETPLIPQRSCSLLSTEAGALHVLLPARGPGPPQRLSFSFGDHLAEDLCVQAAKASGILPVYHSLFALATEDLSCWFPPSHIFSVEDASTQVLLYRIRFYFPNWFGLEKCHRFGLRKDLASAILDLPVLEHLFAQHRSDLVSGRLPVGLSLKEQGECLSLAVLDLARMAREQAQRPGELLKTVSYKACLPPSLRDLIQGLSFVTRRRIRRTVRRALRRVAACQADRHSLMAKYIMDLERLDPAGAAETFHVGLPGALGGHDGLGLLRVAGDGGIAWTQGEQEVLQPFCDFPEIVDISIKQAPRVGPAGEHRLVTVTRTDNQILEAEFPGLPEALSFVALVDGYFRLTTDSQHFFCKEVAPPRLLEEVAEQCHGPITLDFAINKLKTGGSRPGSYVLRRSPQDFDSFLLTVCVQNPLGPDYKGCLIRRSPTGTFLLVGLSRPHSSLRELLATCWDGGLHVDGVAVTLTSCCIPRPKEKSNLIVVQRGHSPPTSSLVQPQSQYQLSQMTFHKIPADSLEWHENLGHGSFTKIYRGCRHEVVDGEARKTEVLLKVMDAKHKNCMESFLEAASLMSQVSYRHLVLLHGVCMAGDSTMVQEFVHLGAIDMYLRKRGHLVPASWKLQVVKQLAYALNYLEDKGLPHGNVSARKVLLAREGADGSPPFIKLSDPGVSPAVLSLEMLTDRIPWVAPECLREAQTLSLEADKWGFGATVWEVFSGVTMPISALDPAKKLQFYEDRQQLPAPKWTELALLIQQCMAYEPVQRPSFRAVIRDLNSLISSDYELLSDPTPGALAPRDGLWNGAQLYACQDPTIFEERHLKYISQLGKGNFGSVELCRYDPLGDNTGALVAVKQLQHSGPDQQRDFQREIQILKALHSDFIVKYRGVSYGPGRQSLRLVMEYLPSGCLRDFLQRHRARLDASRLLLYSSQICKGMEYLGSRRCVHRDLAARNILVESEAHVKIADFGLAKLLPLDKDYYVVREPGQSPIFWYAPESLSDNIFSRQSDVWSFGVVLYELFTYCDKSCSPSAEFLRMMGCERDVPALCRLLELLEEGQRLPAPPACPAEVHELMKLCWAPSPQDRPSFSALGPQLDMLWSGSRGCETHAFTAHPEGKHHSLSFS

BTK = BTK (Homo sapiens, UniProt Q06187); test: BTK IC50 kinase inhibition assay
Sequence of BTK (Q06187 whole entry): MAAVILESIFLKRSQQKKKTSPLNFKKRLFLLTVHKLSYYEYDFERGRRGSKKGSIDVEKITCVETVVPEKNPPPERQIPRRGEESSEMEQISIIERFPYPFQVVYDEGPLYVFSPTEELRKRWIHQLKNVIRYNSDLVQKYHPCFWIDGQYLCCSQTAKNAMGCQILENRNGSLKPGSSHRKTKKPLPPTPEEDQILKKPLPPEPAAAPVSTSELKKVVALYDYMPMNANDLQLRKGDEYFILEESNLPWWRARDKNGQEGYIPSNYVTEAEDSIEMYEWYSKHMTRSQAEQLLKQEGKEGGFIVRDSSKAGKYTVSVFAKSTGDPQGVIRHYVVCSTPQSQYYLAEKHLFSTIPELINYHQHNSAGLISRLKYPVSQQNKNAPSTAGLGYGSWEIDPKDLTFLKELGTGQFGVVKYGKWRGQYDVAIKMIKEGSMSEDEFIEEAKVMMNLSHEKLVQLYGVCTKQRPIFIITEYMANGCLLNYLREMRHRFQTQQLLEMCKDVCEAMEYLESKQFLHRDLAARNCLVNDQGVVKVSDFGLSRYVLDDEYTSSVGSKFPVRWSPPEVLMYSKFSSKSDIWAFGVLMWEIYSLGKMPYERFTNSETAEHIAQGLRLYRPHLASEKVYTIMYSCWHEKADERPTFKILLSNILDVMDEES

TXK = target: T4, TXK (Homo sapiens, UniProt P42681); test: TXK IC50 kinase inhibition assay
T4 sequence (P42681 1-527): T2 sequence (P42681 1-527)

SMILES	pIC50 (ITK)	pIC50 (RLK)	pIC50 (JAK3)	pIC50 (BTK)	pIC50 (TXK)
CN1CCN(CC#CC(=O)N2CC3(CC(n4nc(-c5ccc(Oc6ccccc6)cc5)c5cncnc54)C3)C2)CC1 [Compound A76, 4-(4-Methylpiperazin-1-yl)-1-(6-(3-(4-phenoxyphenyl)-1H-pyrazolo[3,4-d]pyrimidin-1-yl)-2-azaspiro[3.3]heptan-2-yl)but-2-yn-1-one]	< 6.30	–	< 6.30	> 7.00	> 7.00
O=C(C#CC1CC1)N1CC2(CC(n3nc(-c4ccc(Oc5ccccc5)cc4)c4cncnc43)C2)C1 [Compound A78, 3-Cyclopropyl-1-(6-(3-(4-phenoxyphenyl)-1H-pyrazolo[3,4-d]pyrimidin-1-yl)-2-azaspiro[3.3]heptan-2-yl)prop-2-yn-1-one]	< 6.30	–	< 6.30	6.30 to 7.00	< 6.30

Now from value to compound:

pIC50 (ITK)	pIC50 (RLK)	pIC50 (JAK3)	pIC50 (BTK)	pIC50 (TXK)	SMILES
< 6.30	6.30 to 7.00	< 6.30	> 7.00	–	C=CC(=O)N1CCC[C@@H](n2nc(-c3ccc(Oc4ccccc4)cc3)c3cnc(N)nc32)C1 [Compound A11]
< 6.30	–	< 6.30	> 7.00	> 7.00	O=C(C#CCN1CCCCC1)N1CC2(CC(n3nc(-c4ccc(Oc5ccccc5)cc4)c4cncnc43)C2)C1 [Compound A77, 1-(6-(3-(4-Phenoxyphenyl)-1H-pyrazolo[3,4-d]pyrimidin-1-yl)-2-azaspiro[3.3]heptan-2-yl)-4-(piperidin-1-yl)but-2-yn-1-one]
< 6.30	–	< 6.30	> 7.00	> 7.00	COCC#CC(=O)N1CC2(CC(n3nc(-c4ccc(Oc5ccccc5)cc4)c4cncnc43)C2)C1 [Compound A79, 4-Methoxy-1-(6-(3-(4-phenoxyphenyl)-1H-pyrazolo[3,4-d]pyrimidin-1-yl)-2-azaspiro[3.3]heptan-2-yl)but-2-yn-1-one]
